According to patent US12133901B2, “PSMA ligand targeted compounds and uses thereof” (CASE WESTERN RESERVE UNIVERSITY, priority 2019, dated 2024):
Numbered stars: 1 amine (or outer) side, 2 acyl side, 3 side chain; on linkers, the order of the positions; unused ones are H or OH. Square brackets hold non-standard residues; d marks the D form. Peptide text beside a SMILES is read from it. γGlu = O=C(O)[C@H](CCC(=O)[*:2])N[*:1]; X1 = O=C(C1CCC(CN[*:1])CC1)[*:2]; CO = O=C([*:1])[*:2]; Ahx = NCCCCCC(=O)O

Target: T1, PSMA (Homo sapiens, UniProt Q04609)
T1 construct: LNcap cells were trypsinized and washed with cold Tris buffer; endogenous in cells; host or cells: LNCaP cells (printed 'LNcap'), whole-cell suspension
T1 sequence (Q04609 whole entry): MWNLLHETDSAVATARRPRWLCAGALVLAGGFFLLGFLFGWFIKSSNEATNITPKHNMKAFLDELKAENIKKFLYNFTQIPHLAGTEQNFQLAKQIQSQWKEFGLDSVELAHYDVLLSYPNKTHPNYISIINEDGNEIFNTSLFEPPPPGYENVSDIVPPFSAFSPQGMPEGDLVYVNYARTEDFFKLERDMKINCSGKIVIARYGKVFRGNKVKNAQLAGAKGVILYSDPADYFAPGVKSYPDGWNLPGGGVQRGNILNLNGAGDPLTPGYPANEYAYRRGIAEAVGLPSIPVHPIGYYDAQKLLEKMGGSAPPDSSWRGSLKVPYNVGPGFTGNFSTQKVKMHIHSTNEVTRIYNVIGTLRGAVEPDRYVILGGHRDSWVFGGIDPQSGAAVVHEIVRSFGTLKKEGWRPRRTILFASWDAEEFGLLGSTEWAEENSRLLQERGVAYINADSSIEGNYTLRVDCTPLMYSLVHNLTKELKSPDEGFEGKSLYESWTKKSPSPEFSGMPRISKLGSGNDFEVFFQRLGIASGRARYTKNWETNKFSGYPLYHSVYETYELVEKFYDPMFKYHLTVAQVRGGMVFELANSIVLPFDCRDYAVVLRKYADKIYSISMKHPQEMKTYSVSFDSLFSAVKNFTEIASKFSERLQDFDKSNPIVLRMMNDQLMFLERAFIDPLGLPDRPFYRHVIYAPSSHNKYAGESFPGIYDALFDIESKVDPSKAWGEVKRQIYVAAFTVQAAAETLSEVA
Assay: Competition binding assay against 3H-ZJ24
Conditions: PSMA-expressing LNcap cells, 12 nM 3H-labelled ZJ24, 1 h at 37° C.; read-out: IC50 (concentration of ligand required to inhibit 50% of binding)
Protocol: LNcap cells were trypsinized and washed with cold Tris buffer (0.5 mM). […] Each group was done in triplicate. The mixture was then centrifuged and washed three times with cold PBS. Finally, 4 m L of EcoLume cocktail (MP biomedicals) was added to each sample, and radioactivity was counted by a scintillation counter. The concentration of ligands required to inhibit 50% of binding (IC50) was determined by GraphPad Prism 3.0.

IC50 | Compound
1.69 nM | NCCCC[C@H](NC(=O)[C@H](CCC(=O)O)NC(=O)[C@H](CCC(=O)O)NC(=O)[C@H](CCC(=O)O)NC(=O)CCCCCNC(=O)C1CCC(CNC(=O)CC[C@H](NC(=O)N[C@@H](CCC(=O)O)C(=O)O)C(=O)O)CC1)C(=O)N[C@@H](Cc1ccc(O)cc1)C(=O)N[C@@H](CS)C(N)=O (stereo partly drawn) [CY-PSMA-1, Glu-CO-Glu′-Amc-Ahx-Glu-Glu-Glu-Lys-Tyr-Cys-NH2] ({Glu-CO-γGlu}-[X1][Ahx]EEEKYC-NH2)
8.31 nM | CSC[C@H](NC(=O)N[C@@H](CCC(=O)O)C(=O)O)C(=O)O [ZJ24]
